Several values for one entry are separate records, joined by “and”; a condition that tells them apart may be missing. Identical values can stand only once. In the oligonucleotide strings, read from the 5' end, every base follows the letter of its sugar. An asterisk marks phosphorothioate; unmarked linkages are phosphodiester. Other units and linkages are bracketed, terminal groups are in braces. A string of capitals states the bases alone. e = 2'-O-(2-methoxyethyl) (MOE); [5mC] = 5-methylcytosine; d = 2'-deoxy (DNA)
Tests used:
HeLa cells = test: Cell cycle assay in HeLa cells; assay type: cell-based, human; conditions: HeLa cells, 150 nM oligomeric compound
IGFBP-1 = IGFBP-1 mRNA expression in HepG2 cells; assay type: cell-based, human; conditions: for IGFBP1 mRNA: four hours, UTC = 100; for IGFBP1 mRNA expression: Experiment 2, insulin treated: HepG2 cells transfected with oligomeric compound, 1 nM insulin for four hours, UTC + 1 nM insulin = 100
Experimental: Approximately 28 hours after transfection, the cells are subjected to serum starvation for a period of 12 to 16 hours, using serum-free growth medium. Following serum starvation, cells are treated with 1 nM insulin (insulin-treated) or are left untreated (basal conditions) for approximately four hours. At the same time, untreated control cells in both plates are treated with 100 nM insulin to determine the maximal insulin response. Following insulin treatment (forty-eight hours after transfection), total RNA is harvested from all samples, and the amount of total RNA from each sample is determined using a Ribogreen assay (Invitrogen Corporation, Carlsbad, Calif.). Real-time PCR is performed on the total RNA samples using primer/probe sets for three insulin responsive genes: insulin-like growth factor binding protein-1 (IGFBP-1), cytosolic PEPCK (PEPCK-C), and follistatin. Gene expression levels obtained by real-time PCR are normalized for total RNA content in the samples.
Oligomeric compounds of the present invention were tested for their effects on insulin signaling in HepG2 cells. HepG2 cells were plated at 7500 cells/well in collagen coated 96-well plates. The following day, cells were transfected with oligomeric compounds targeting miRNAs using 100 nM oligomeric compound in LIPOFECTIN™ (Invitrogen Corporation, Carlsbad, Calif.) in two 96-well plates. The oligomeric compounds were tested in triplicate on each 96-well plate, except for positive and negative controls, which were measured up to six times per plate. At the end of transfection, the transfection medium was replaced by regular growth medium. Twenty-eight hours post-transfection, the cells were subjected to overnight (sixteen to eighteen hours) serum starvation using serum free growth medium. Forty-four hours post-transfection, the cells in the transfected wells were treated with either no insulin (“basal” Experiment 1, for identification of insulin-mimetic compounds) or with 1 nM insulin (“insulin treated” Experiment 2, for identification of insulin sensitizers) for four hours. At the same time, in both plates, cells in some of the un-transfected control wells are treated with 100 nM insulin to determine maximal insulin response. At the end of the insulin or no-insulin treatment (forty-eight hours post-transfection), total RNA is isolated from both the basal and insulin treated (1 nM) 96-well plates, and the amount of total RNA from each sample is determined using a Ribogreen assay (Molecular Probes, Eugene, Oreg.). Real-time PCR is performed on all the total RNA samples using primer/probe sets for three insulin responsive genes: PEPCK-c, IGFBP-1 and follistatin. Expression levels for each gene are normalized to total RNA, and values+standard deviation are expressed relative to the transfectant only untreated control (UTC) and negative control compounds.
Protocols for treatment of HepG2 cells and transfection of oligomeric compounds are as described in Example 18. Also as described in Example 18, forty-four hours post-transfection, the cells in the transfected wells were treated with either no insulin (“basal” Experiment 3 (below), for identification of insulin-mimetic compounds) or with 1 nM insulin (“insulin treated” Experiment 4 (below), for identification of insulin sensitizers) for four hours. At the same time, in both plates, cells in some of the un-transfected control wells are treated with 100 nM insulin to determine maximal insulin response. At the end of the insulin or no-insulin treatment (forty-eight hours post-transfection), total RNA is isolated from both the basal and insulin treated (1 nM) 96-well plates, and the amount of total RNA from each sample is determined using a Ribogreen assay (Molecular Probes, Eugene, Oreg.).

[1] = 24 hours, relative to untreated control (UTC = 100)
[2] = 48 hours after treatment, relative to untreated control (UTC=100)
[3] = Experiment 1, basal (no insulin), HepG2, 100 nM oligomeric compound
[4] = Experiment 2, 1 nM insulin treated, HepG2, 100 nM oligomeric compound
[5] = HepG2 cells, Experiment 1, basal (no insulin)
[6] = Experiment 3, basal (no insulin), HepG2 cells, 48 hours post-transfection
[7] = Experiment 4, insulin-sensitization: HepG2 cells treated with 1 nM insulin for four hours, 48 h post-transfection, mRNA by real-time PCR

327876 (antisense eA*eA*e[5mC]*eA*e[5mC]*eT*eG*eA*eT*eT*eT*e[5mC]*eA*eA*eA*eT*eG*eG*eT*eG*e[5mC]*eT*eA) [compound 327876]
% cells aneuploid (HeLa cells; [1]): 66% and 75% | % cells in cell cycle phase G1 (HeLa cells; [1]): 98% and 93% | % cells in cell cycle phase G2/M (HeLa cells; [1]): 95% and 131% | % cells in cell cycle phase S (HeLa cells; [1]): 104% and 92% | % cells in cell cycle phase subG1 (HeLa cells; [1]): 103% and 149% | % cells in cell cycle phase: G1 (HeLa cells; [2]): 87% and 76% | % cells in cell cycle phase: G2/M (HeLa cells; [2]): 119% and 126% | % cells in cell cycle phase: S (HeLa cells; [2]): 120% and 141% | % cells in cell cycle phase: aneuploid (HeLa cells; [2]): 100% and 69% | IGFBP-1 (% UTC) (IGFBP-1; [3]): 93 % UTC | IGFBP-1 (% UTC) (IGFBP-1; [4]): 118 % UTC

327880 (antisense eA*e[5mC]*eA*eA*eA*eT*eT*e[5mC]*eG*eG*eT*eT*e[5mC]*eT*eA*e[5mC]*eA*eG*eG*eG*eT*eA) [compound 327880]
IGFBP-1 (% UTC) (IGFBP-1; [3]): 137 % UTC | IGFBP-1 (% UTC) (IGFBP-1; [4]): 136 % UTC

327886 (antisense e[5mC]*eG*e[5mC]*eG*eT*eA*e[5mC]*e[5mC]*eA*eA*eA*eA*eG*eT*eA*eA*eT*eA*eA*eT*eG) [compound 327886]
IGFBP1 mRNA (IGFBP-1; [5]): 176

327887 (antisense eG*e[5mC]*eG*eA*e[5mC]*e[5mC]*eA*eT*eG*eG*e[5mC]*eT*eG*eT*eA*eG*eA*e[5mC]*eT*eG*eT*eT*eA) [compound 327887]
IGFBP1 mRNA (IGFBP-1; [5]): 119

327890 (antisense eA*eG*e[5mC]*eA*e[5mC]*eA*eA*eA*e[5mC]*eT*eA*e[5mC]*eT*eA*e[5mC]*e[5mC]*eT*e[5mC]*eA) [compound 327890]
IGFBP-1 (% UTC) (IGFBP-1; [3]): 99 % UTC | IGFBP-1 (% UTC) (IGFBP-1; [4]): 88 % UTC

327893 (antisense eA*eA*e[5mC]*e[5mC]*eA*e[5mC]*eA*e[5mC]*eA*eA*e[5mC]*e[5mC]*eT*eA*e[5mC]*eT*eA*e[5mC]*e[5mC]*eT*e[5mC]*eA) [compound 327893]
IGFBP1 mRNA (IGFBP-1; [5]): 107

327895 (antisense eA*e[5mC]*eA*eA*eA*e[5mC]*eA*e[5mC]*e[5mC]*eA*eT*eT*eG*eT*e[5mC]*eA*e[5mC]*eA*e[5mC]*eT*e[5mC]*e[5mC]*eA) [compound 327895]
IGFBP1 mRNA (IGFBP-1; [5]): 108

327899 (antisense e[5mC]*eA*eG*eT*eG*eA*eA*eT*eT*e[5mC]*eT*eA*e[5mC]*e[5mC]*eA*eG*eT*eG*e[5mC]*e[5mC]*eA*eT*eA) [compound 327899]
IGFBP1 mRNA (IGFBP-1; [5]): 105

327900 (antisense e[5mC]*eT*eG*e[5mC]*e[5mC]*eT*eG*eT*e[5mC]*eT*eG*eT*eG*e[5mC]*e[5mC]*eT*eG*e[5mC]*eT*eG*eT) [compound 327900]
IGFBP1 mRNA (IGFBP-1; [5]): 102

327913 (antisense eA*eA*e[5mC]*e[5mC]*eG*eA*eT*eT*eT*e[5mC]*eA*eA*eA*eT*eG*eG*eT*eG*e[5mC]*eT*eA*eG) [compound 327913]
IGFBP-1 (% UTC) (IGFBP-1; [3]): 123 % UTC | IGFBP-1 (% UTC) (IGFBP-1; [4]): 147 % UTC

327916 (antisense eT*eG*eG*e[5mC]*eA*eT*eT*e[5mC]*eA*e[5mC]*e[5mC]*eG*e[5mC]*eG*eT*eG*e[5mC]*e[5mC]*eT*eT*eA*eA) [compound 327916]
IGFBP1 mRNA expression (IGFBP-1): 128 | IGFBP1 mRNA (IGFBP-1; [5]): 102

327918 (antisense e[5mC]*eT*eA*eG*eT*eA*e[5mC]*eA*eT*e[5mC]*eA*eT*e[5mC]*eT*eA*eT*eA*e[5mC]*eT*eG*eT*eA) [compound 327918]
IGFBP1 mRNA expression (IGFBP-1): 81 | IGFBP1 mRNA (IGFBP-1; [5]): 95

327920 (antisense eG*eA*eG*eA*e[5mC]*e[5mC]*e[5mC]*eA*eG*eT*eA*eG*e[5mC]*e[5mC]*eA*eG*eA*eT*eG*eT*eA*eG*e[5mC]*eT) [compound 327920]
IGFBP1 mRNA expression (IGFBP-1): 267 | IGFBP1 mRNA (IGFBP-1; [5]): 165

327923 (antisense eG*eA*eA*eA*eG*eA*eG*eA*e[5mC]*e[5mC]*eG*eG*eT*eT*e[5mC]*eA*e[5mC]*eT*eG*eT*eG*eA) [compound 327923]
IGFBP1 mRNA expression (IGFBP-1): 119 | IGFBP1 mRNA (IGFBP-1; [5]): 116

327925 (antisense eT*eA*eG*e[5mC]*eT*eG*eG*eT*eT*eG*eA*eA*eG*eG*eG*eG*eA*e[5mC]*e[5mC]*eA*eA) [compound 327925]
IGFBP-1 (% UTC) (IGFBP-1; [3]): 152 % UTC | IGFBP-1 (% UTC) (IGFBP-1; [4]): 166 % UTC

327941 (antisense eA*eA*e[5mC]*e[5mC]*e[5mC]*eA*e[5mC]*e[5mC]*eG*eA*e[5mC]*eA*eG*e[5mC]*eA*eA*eT*eG*eA*eA*eT*eG*eT*eT) [compound 327941]
IGFBP-1 (% UTC) (IGFBP-1; [3]): 83 % UTC | IGFBP-1 (% UTC) (IGFBP-1; [4]): 80 % UTC

327954 (antisense eA*e[5mC]*eA*eA*eA*eG*eT*eT*e[5mC]*eT*eG*eT*eG*eA*eT*eG*e[5mC]*eA*e[5mC]*eT*eG*eA) [compound 327954]
IGFBP-1 (% UTC) (IGFBP-1; [3]): 118 % UTC | IGFBP-1 (% UTC) (IGFBP-1; [4]): 120 % UTC

328114 (antisense eA*eA*eT*e[5mC]*eT*e[5mC]*eA*eT*eT*eT*eT*e[5mC]*eA*eT*eA*e[5mC]*eT*eT*eG*e[5mC]*eA) [compound 328114]
IGFBP1 mRNA expression (IGFBP-1): 177

328125 (antisense eT*eA*eT*eG*eA*eA*eA*eT*eG*e[5mC]*e[5mC]*eA*eG*eA*eG*e[5mC]*eT*eG*e[5mC]*e[5mC]*eA) [compound 328125]
IGFBP1 mRNA expression (IGFBP-1): 216

328677 (eT*e[5mC]*e[5mC]*eT*eG*dG*dA*dT*dG*dA*dT*dA*dT*d[5mC]*dT*eA*e[5mC]*e[5mC]*eT*e[5mC]; antisense) [compound 328677]
IGFBP-1 (% UTC) (IGFBP-1; [6]): 208 % UTC | IGFBP-1 (% UTC) (IGFBP-1; [7]): 159 % UTC

328685 (e[5mC]*eG*eG*e[5mC]*e[5mC]*dG*dG*dA*dG*d[5mC]*d[5mC]*dA*dT*dA*dG*eA*e[5mC]*eT*e[5mC]*eG; antisense) [compound 328685]
IGFBP-1 (% UTC) (IGFBP-1; [6]): 157 % UTC | IGFBP-1 (% UTC) (IGFBP-1; [7]): 143 % UTC

328691 (e[5mC]*e[5mC]*e[5mC]*e[5mC]*eA*dT*d[5mC]*dT*dT*dA*dG*d[5mC]*dA*dT*d[5mC]*eT*eA*eA*eG*eG) [compound 328691]
IGFBP-1 (% UTC) (IGFBP-1; [6]): 105 % UTC | IGFBP-1 (% UTC) (IGFBP-1; [7]): 101 % UTC

338664 (antisense e[5mC]*eA*eG*eA*e[5mC]*eT*e[5mC]*e[5mC]*e[5mC]*eA*eA*e[5mC]*eT*eG*eA*e[5mC]*e[5mC]*eA*eG*eA) [compound 338664]
IGFBP-1 (% UTC) (IGFBP-1; [3]): 90 % UTC | IGFBP-1 (% UTC) (IGFBP-1; [4]): 100 % UTC

341800 (antisense AAGCCCAAAAGGAGAAUUCUUUG; all 2'-MOE, all phosphorothioate, methylation of C and T or U not given here) [compound 341800]
IGFBP1 mRNA (IGFBP-1; [5]): 114

341803 (antisense CCACACACTTCCTTACATTCCA; all 2'-MOE, all phosphorothioate, methylation of C not given here) [compound 341803]
IGFBP1 mRNA (IGFBP-1; [5]): 107

341804 (antisense ATCTGCACTGTCAGCACTTT; all 2'-MOE, all phosphorothioate, methylation of C not given here) [compound 341804]
IGFBP1 mRNA (IGFBP-1; [5]): 162

341805 (antisense ACCCTTATCAGTTCTCCGTCCA; all 2'-MOE, all phosphorothioate, methylation of C not given here) [compound 341805]
IGFBP1 mRNA (IGFBP-1; [5]): 105

341806 (antisense GCCAATATTTCTGTGCTGCTA; all 2'-MOE, all phosphorothioate, methylation of C not given here) [compound 341806]
IGFBP1 mRNA (IGFBP-1; [5]): 128

341807 (antisense CTGGGACTTTGTAGGCCAGTT; all 2'-MOE, all phosphorothioate, methylation of C not given here) [compound 341807]
IGFBP1 mRNA (IGFBP-1; [5]): 129

Source: patent US8178506B2, “Oligomeric compounds and compositions for use in modulation of small non-coding RNAs” (Regulus Therapeutics Inc., priority 2003, dated 2012)
